Where a SMILES comes first, the peptide text is derived from it.
Experiments:
[1] = 2 μM, up to 60 minutes
Experimental: S9 fractions from 5 different species were incubated with 2 μM P1 (SEQ ID NO: 1) or 7-Ethoxycoumarin (positive control for clearance) and necessary reactants for up to 60 minutes at 37° C. Reactions were stopped and samples were analysed by LCMS.

[2] = Plasma stability, human plasma; type: in vitro ADME; conditions: 2 μM, 37° C.
Experimental: Mouse or human plasma were incubated with 2 μM of P1 (SEQ ID NO: 1) or propantheline bromide (positive control for degradation) and left at 37° C. At each time point, stop solution was added to precipitate the solution and after mixing and centrifugation, supernatant was used for LCMS analysis.

SH-SY5Y cells = assay: Lysosomal acidification in SH-SY5Y cells, LysoSensor Yellow/Blue DND-160; type: cell-based, human; conditions: 1 uM, 4 hours
Experimental: SH-SY5Y were seeded in poly-L coated black 96 well plate with clear bottom at a density of ˜3×10^4. The following day, the cells were stimulated with 1 uM P1 (SEQ ID NO: 1) for 4 hours and subsequently incubated with LysoSensor™ Yellow/Blue DND-160 (10 uM) for 20 min. Cells were rinsed with PBS and excitation 340 & 380 and emission 535 was read in a plate-reader. A pH calibration curve buffer was likewise measured. Calculation of the fluorescence intensity ratio of excitation (340/380) results in an average whole-cell intraorganellar pH reflective of all LysoSensor™ Yellow/Blue DND-160-labeled organelles combined. Using the generated linear trendline from the standard curve for pH and 340/380 intensity ratio, calculate the intraorganellar pH of samples.

[3] = test system: GRN+/- hippocampal neurons; assay: Lysosomal acidification in GRN+/- hippocampal neurons, LysoSensor DND-189; type: cell-based, mouse; conditions: 1 uM, 4 hours
Experimental: Primary hippocampal neurons from GRN+/− mice were seeded in an 8-well ibidi chamber pre-coated with Poly-I and laminin. 75,000 neurons were seeded pr. well. After 5 days in vitro the neurons were stimulated for 4, 8 or 24 hours with peptide P1 at 1 uM in neurobasal A with B27. After stimulation, the medium was changed to pre-warmed (37° C.) neurobasal A containing 1 uM of LysoSensor probe DND-189 (an acidotropic probes that accumulates in acidic organelles as the result of protonation) and incubated for 30 min. at 37° C. in a 5% C02 atmosphere. Hereafter, the media was changed to pre-warmed FluoroBrite Medium and the neurons were imaged in Olympus microscopy system. Pictures were taken of the lysosomes and processed using the ScanR imaging software to give fluorescence (intensity) of each lysosomal vesicle. The summed total intensity of all lysosomes was calculated and divided by the total number of neurons imaged yielding the total intensity of lysosomes per neuron. Student's t-test was used for statistical analysis.

[4] = Plasma binding, human plasma, ultracentrifugation; type: in vitro ADME
Experimental: For plasma binding, 2 μM P1 or Warfarin (positive control) were added to mouse or human plasma. After 30 minutes incubation at 37° C., samples where ultracentrifuged for 4 hours to generate protein-free samples for LCMS analysis. In parallel, plasma was incubated for 4.5 h to determine total levels after incubation. Plasma binding was calculated as % Bound=100*(1−F/T4.5), where F is concentration of free ligand and T4.5 is the concentration of total ligand after incubation.

CREB = CREB activation in striatum and hippocampus of wild-type mice after IV injection; type: in vivo, mouse; conditions: 0.26 mg/kg IV, 1 hour after injection
Experimental: To assess this, 8 weeks old wild-type mice were injected intravenously with either 0.26 mg/kg of peptide P1 or LP1 dissolved in saline. 1 hour after the injection, the mice were sacrificed by cervical dislocation and striatal tissue was isolated by dissection and immediately lysed using a TissueLyser in lysis buffer containing cOmplete and DTT. The samples were subsequently homogenized by sonication. The phosphorylation of CREB on serine 133 was subsequently validated by western blotting. The levels of phosphorylated CREB were normalized to the corresponding beta-actin levels. Student's t-test was used for statistical analysis.

[5] = test system: HTT in GM01650E fibroblasts; assay: Total HTT levels in fibroblasts from a healthy individual (GM01650E); type: cell-based, human; conditions: 1 uM, healthy cell line, 2-4 hours
Experimental: GM04719 was seeded at 30,000-50,000 per well in a 96-well. The following day, the cells were treated with 1 uM of P1 and incubated at 37° C. and 5% CO2 at timepoints 0-24 hours. Hereafter, the cells were lysed in RIPA lysis buffer containing cOmplete cocktail protease inhibitor. Total Huntingtin levels were analysed using antibody mab2166 (Sigma-Aldrich) by western blotting and normalized to beta-actin. To determine, whether P1 also clears the healthy allele, we further assessed levels of total HTT in fibroblast derived from a healthy individual (GM01650E), bought from Coriell Biobank.

[6] = test system: BDNF, PGC1a and TFEB in GM04719 fibroblasts; assay: BDNF, PGC1a and TFEB levels in HD patient-derived fibroblasts, western blotting; type: cell-based, human; conditions: 1 uM
Experimental: To validate the therapeutic potential of P1 in Huntington's Disease, we likewise assessed whether P1 could increase the three distinct pathways in fibroblasts derived from a HD patient. The fibroblasts were bought from Coriell Biobank. The patient-derived fibroblasts, named GM04719, was sampled from a person with clinical onset […]. The patient has 44-CAG repeats in their HTT-gene.
To assess target engagement by P1, 30,000-50,000 fibroblasts were seeded per well in a 96-well plate. The following day, the cells were treated with 1 uM of P1 and incubated at 37° C. and 5% CO2 at timepoints between 2-24 hours. Hereafter, the cells were lysed in RIPA lysis buffer containing cOmplete cocktail protease inhibitor. BDNF, PGC1a and TFEB levels were analysed by western blotting normalized to beta-actin.

TDP-43(ΔNLS)-YFP = assay: Clearance of cytoplasmic TDP-43 in HEK293 cells, western blotting; type: cell-based; conditions: dose-range of P1, 24 hours
Experimental: 100,000 HEK293T cells were seeded in a 24-well plate per well. At 60% confluency the cells were transfected with a form of TDP-43-YFP with a mutated nuclear localization signal (TDP-43(ΔNLS)-YFP) to restrict TDP-43 to the cytosol, which is the pathogenic localization in frontotemporal dementia^67. After 24 hours, the cells were treated with a dose-range of peptide P1 and further incubated for another 24 hours. The cells were subsequently lysed in lysis buffer containing DTT and cOmplete cocktail protease inhibitor. The levels of TDP-43 were validated by western blotting using an anti-GFP antibody and the levels were normalized to beta-actin.

[7] = Liver microsome stability, human; type: in vitro ADME; conditions: 2 μM, up to 60 minutes
Experimental: Reactions were stopped at timepoints between 0-60 min. and samples analysed by LCMS.

CSCC[C@@H]1NC(=O)[C@H](C(C)C)NC(=O)[C@H](CC(=O)O)NC(=O)[C@H](CCC(=O)O)NC(=O)[C@H](CCC(=O)O)NC(=O)[C@H](Cc2c[nH]cn2)NC(=O)[C@H](CCC(=O)O)NC(=O)[C@H](C(C)C)NC(=O)[C@@H]2CCCN2C(=O)[C@H](CCC(=O)O)NC(=O)[C@H]([C@@H](C)O)NC1=O [Peptide P1, [MTEPVEHEEDV]] (cyclo(MTEPVEHEEDV))
clearance and stability in liver S9 fractions ([1]; 5 different species): low clearance and high stability
stability in mouse and human S9 liver fractions ([1]; mouse and human): some stability is lost
half-life [2]: > 4.82 h
340/380 intensity ratio (SH-SY5Y cells): reduction
drop in lysosomal pH (SH-SY5Y cells): ~0.2 pH
lysosomal intensity (lysosomal acidification) [3]: lysosomal intensity was increased
plasma binding ([4]; 2 μM): 20%
fraction unbound at 30 min, 2 μM ([4]; read-out: compound unbound in plasma): > 0.75
pCREB (S133) in hippocampus (CREB): performed markedly better than LP1
pCREB (S133) in striatum (CREB): performed markedly better than LP1
total HTT levels [5]: increasing the total HTT levels
PGC1a level ([6]; 6 hours of treatment): upregulated
TFEB level ([6]; 6 hours of treatment): upregulated
BDNF level ([6]; after 24 hours): significantly upregulated
cytoplasmic TDP-43 levels (TDP-43(ΔNLS)-YFP): decreased the pathogenic cytoplasmic form of TDP-43
clearance and stability in liver microsomes [7]: low clearance and high stability
